Measured values as given in publication PMC7268545, “Development of a QPatch-Automated Electrophysiology Assay for Identifying TMEM16A Small-Molecule Inhibitors” (Assay and Drug Development Technologies, 2020).
Read-outs that look alike come from different tables or passages of the source.

Biological target: T1, human ANO1 channel (isoform acd) (Homo sapiens, UniProt Q5XXA6)
T1 construct: host or cells: HEK293T
T1 sequence (Q5XXA6 1-986): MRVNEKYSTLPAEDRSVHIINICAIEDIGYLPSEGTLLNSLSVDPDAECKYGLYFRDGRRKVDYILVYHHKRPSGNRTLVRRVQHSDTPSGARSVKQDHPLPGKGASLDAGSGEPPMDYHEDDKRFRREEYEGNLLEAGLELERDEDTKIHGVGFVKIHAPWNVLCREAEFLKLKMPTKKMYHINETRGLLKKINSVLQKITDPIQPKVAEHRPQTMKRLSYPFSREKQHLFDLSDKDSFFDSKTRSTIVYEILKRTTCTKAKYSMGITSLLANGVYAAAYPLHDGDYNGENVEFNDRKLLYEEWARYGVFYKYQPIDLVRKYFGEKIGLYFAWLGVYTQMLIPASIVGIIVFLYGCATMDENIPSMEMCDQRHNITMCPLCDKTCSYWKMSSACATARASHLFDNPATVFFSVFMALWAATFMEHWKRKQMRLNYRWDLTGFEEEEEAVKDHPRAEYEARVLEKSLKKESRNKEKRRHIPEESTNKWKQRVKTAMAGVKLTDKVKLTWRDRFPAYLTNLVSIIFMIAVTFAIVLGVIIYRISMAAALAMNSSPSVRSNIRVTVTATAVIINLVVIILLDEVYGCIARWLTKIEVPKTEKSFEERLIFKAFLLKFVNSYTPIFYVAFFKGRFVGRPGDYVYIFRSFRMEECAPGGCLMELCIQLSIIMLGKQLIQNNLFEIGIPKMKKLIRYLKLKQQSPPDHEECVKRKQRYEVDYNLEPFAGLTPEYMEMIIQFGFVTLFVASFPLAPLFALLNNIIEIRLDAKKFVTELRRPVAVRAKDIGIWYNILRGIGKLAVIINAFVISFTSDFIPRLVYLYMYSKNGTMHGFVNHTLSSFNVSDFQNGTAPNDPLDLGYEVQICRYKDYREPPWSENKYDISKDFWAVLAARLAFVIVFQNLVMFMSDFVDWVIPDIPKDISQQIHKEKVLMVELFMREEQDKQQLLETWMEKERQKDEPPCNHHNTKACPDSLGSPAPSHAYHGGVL
Assay: QPatch-48 single-concentration/multiple-addition (extended incubation) protocol
Format: cell-based
Procedure: As mentioned, due to the nature of the channel and its rundown issues, time limitations exist for recording. Therefore, each concentration of compound is added to the cell for a duration of 60 s. It is possible that the IC50 is shifted for those compounds that require a longer time to act on the channel. To account for this, a single-concentration/multiple-addition protocol was established (Fig. 6). […] This led us to wonder if we were missing the full response to the concentration before the next liquid period began and the more concentrated, cumulative addition was applied to the cell. The original application protocol was amended to allow for two 4-min incubations with the same concentration of compound. The total length of the assay is roughly 15 min, with two 1-min saline additions to stabilize current, two 1-min vehicle additions to account for any DMSO effects, and two 4-min compound additions, ending with two 1-min saline additions to look for washout effects. The same IV voltage protocol was used as well as the same whole-cell conditions and solutions. When niclosamide was run with this extended incubation protocol, the IC50 was four times as potent (Fig. 6), aligning nicely with the other in-house assays that were run. A DMSO condition was included to account for any rundown that occurred, with the result of 92% current remaining at the end of the assay. Therefore, the block observed with niclosamide additions was not due to rundown. When 240 nM was added, the current plateaued at ∼60% current amplitude. […] Any compounds that result in partial inhibition with the original assay can be run on the multiple-addition assay to see if they require more time to inhibit the channel.
Fig. 6. Current time plots of the modified protocol with multiple additions of a single concentration. Top: IT plot when 240 nM niclosamide is added to a cell. Bottom: IT plot when 1.2 μM niclosamide is added to a cell.

Compound: O=C(Nc1ccc([N+](=O)[O-])cc1Cl)c1cc(Cl)ccc1O [Niclosamide]
- current amplitude at plateau (240 nM): ~60%
- block in current after first 4-min incubation (1.2 μM, after first addition): 50%
- final block after second addition (1.2 μM, after second 4-min addition): 78%
- IC50 (Fig. 6 table in picture, read-out: IC50, Single Concentration- Multiple Additions): 352 nM
- IC50 (single concentration, multiple additions, Fig. 6 curve, read-out: IC50, modified single-concentration assay): 352 nM
- IC50 (two 4-min additions of the same concentration, n = 2, read-out: final IC50 (mean ± SD)): 221 ± 185 nM
